“And” between values parts separate entries of the source, which are not always exact repeats. Equal values may be shown once. Read-outs that look alike come from different tables or passages of the source.
How the values were obtained:
[1] = test system: human large bowel cancer cell COLO320DM; test: Example 3 comparison with other gastrin/CCK-B antagonist in COLO320DM bearing mice; type: in vivo; conditions: 10 days
Description: In human large bowel cancer cell COLO320DM bearing mice, the administration of compound A was started when the tumor volume reached to about 120 mm^3 in a similar manner to that described in the Example 2. Its dose per day was 60 or 200 mg/kg, and the administration period was 10 days. As a comparative compound, (3RS)-N-(1-(1-tert-butylcarbonylmethyl)-2,3-dihydro-2-oxo-5-(2-pyridyl)-1H-1,4-benzodiazepin-3-yl)-N′-(3-(dimethylamino)phenyl)urea whose data on inhibitory effect of pentagastrin-stimulus gastric acid secretion in a dog are disclosed as “compound of Example 38” in the aforementioned WO 93/16999 was administered in the same manner at a dose of 200 mg/kg.
The tumor growth inhibition ratio was calculated in a similar manner to that described in Example 2. The tumor growth inhibition ratio when 60 or 200 mg/kg of the compound A was administered was 20 or 27%, respectively.

[2] = test system: human large bowel cancer; conditions: without exogenous gastrin stimulation, cited from earlier work
[3] = test system: human pancreatic cancer cell line BxPC-3; test: Example 4 comparison with gemcitabine, tumor growth in BxPC-3 bearing nude mice; type: in vivo
Description: (§1) A total of 3×10^6 cells of a human pancreatic cancer cell line BxPC-3 was injected into the dorsal side skin of female Balb/c nude mice (6 weeks of age). When the tumor volume reached to about 110 mm^3, 60, 200 or 600 mg/kg per day of the compound A was orally administered in a similar manner to that described in Example 2, every day by dividing the daily dose into two doses per day (n=5). Also, 0.5% methylcellulose solution was administered in the same schedule to the control group. The administration period was 14 days.
(§2) As a comparative compound, a known pancreatic cancer therapeutic agent Gemcitabine (GEM) was used in the same test. GEM was intravenously administered at a dose of 60, 120 or 240 mg/kg per day, once in three days. Physiological saline was administered to the control group in the same schedule.
The tumor growth inhibition ratio was calculated by same calculation formula in Example 2.

[4] = Example 4 side effect parameters in BxPC-3 bearing nude mice; type: in vivo
Description: as §1, §2
The tumor growth inhibition ratio in the compound A-treated group is shown in Table 3, and that in the GEM-treated group in Table 4, together with various parameters which indicate the degree of side effects.

[5] = test system: cancer cell proliferation; conditions: group of no gastrin stimulation; cited from earlier work
[6] = test system: human gastric cancer cell line MKN28; test: Example 1 antitumor action in MKN28 bearing Balb/c nude mice; type: in vivo; conditions: MKN28, 200 mg/kg per day p.o., 20 days
Description: (§3) Three to 10×10^6 cells of human pancreatic cancer cell lines (BxPC-3 and PANC-1), human large bowel cancer cell lines (HT29 and COLO320DM) and a human gastric cancer cell line (MKN28) were injected into the dorsal side skin of female Balb/c nude mice. Starting on the next day of the subcutaneous injection of cancer cells, 200 mg/kg per day of the compound A was suspended in 0.5% methylcellulose and orally administered every day by dividing the daily dose into two doses per day. Also, 0.5% methylcellulose solution was administered in the same schedule to the control group. Using calipers, the tumor diameter was measured periodically until the next day of the final administration. The tumor volume and tumor growth inhibition ratio were calculated by the following calculation formulae.
(§4) Tumor volume (mm^3)=½×breadth (mm)^2×length (mm)
(§5) Tumor growth inhibition ratio (%)=[(tumor volume of control group—tumor volume of compound A administration group)/tumor volume of control group]×100

[7] = test system: human pancreatic cancer cell BxPC-3; test: Example 2 antitumor action in BxPC-3 cancer-bearing mice (established tumor); type: in vivo; conditions: 21 days, start at about 120 mm^3
Description: (§6) In human pancreatic cancer cell BxPC-3 bearing mice, administration of the compound A was started when the tumor volume reached to about 120 mm^3 in a similar manner to that described in the test example 1. Its dose per day was 200 or 600 mg/kg, and the administration period was 21 days.
The tumor growth inhibition ratio was calculated by the following calculation formula.
Tumor growth inhibition ratio (%)={[(tumor volume of control group on the administration-finished day−tumor volume of control group before commencement of the administration)−(tumor volume of compound A-treated group on the administration-finished day−tumor volume of compound A-treated group before commencement of the administration)]/(tumor volume of control group on the administration-finished day−tumor volume of control group before commencement of the administration)}×100

[8] = test system: human pancreatic cancer cell line PANC-1; test: Example 1 antitumor action in PANC-1 bearing Balb/c nude mice; type: in vivo; conditions: PANC-1, 200 mg/kg per day p.o., 49 days
Description: as §3, §4, §5

[9] = Example 2 toxicity (body weight, side effects) in BxPC-3 cancer-bearing mice; type: in vivo
Description: as §6

[10] = test system: human large bowel cancer cell line COLO320DM; test: Example 1 antitumor action in COLO320DM bearing Balb/c nude mice; type: in vivo; conditions: 200 mg/kg per day p.o., 21 days
Description: as §3, §4, §5

[11] = test system: gastrin-stimulated gastric acid secretion; conditions: dog, 0.01 mg/kg oral administration; cited from earlier work
[12] = test system: human large bowel cancer cell line HT29; test: Example 1 antitumor action in HT29 bearing Balb/c nude mice; type: in vivo; conditions: HT29, 200 mg/kg per day p.o., 27 days
Description: as §3, §4, §5

[13] = test system: human pancreatic cancer cell line BxPC-3; test: Example 1 antitumor action in BxPC-3 bearing Balb/c nude mice; type: in vivo; conditions: BxPC-3, 200 mg/kg per day p.o. from day after injection, 23 days
Description: as §3, §4, §5

[14] = test system: large bowel cancer; conditions: large bowel cancer-bearing mice; cited from earlier work
[15] = daily dose of 600 mg/kg continuously for 21 days

CN(C)c1cccc(NC(=O)NC2N=C(c3ccccn3)c3ccccc3N(CC(=O)C(C)(C)C)C2=O)c1 (racemic) [comparative compound, (3RS)-N-(1-(1-tert-butylcarbonylmethyl)-2,3-dihydro-2-oxo-5-(2-pyridyl)-1H-1,4-benzodiazepin-3-yl)-N′-(3-(dimethylamino)phenyl)urea, reference compound]
tumor growth inhibitory action ([1]; 200 mg/kg): did not show

C[C@](Cc1c[nH]c2ccccc12)(NC(=O)OC1[C@H]2C[C@@H]3C[C@@H](C[C@H]1C3)C2)C(=O)NC[C@H](NC(=O)CCC(=O)O)c1ccccc1 (stereo partly drawn) [CI-988]
growth inhibitory action ([2]; 25 mg/kg oral): showed a growth inhibitory action
growth inhibitory action ([2]; 50 mg/kg oral): not found

Nc1ccn([C@@H]2O[C@H](CO)[C@@H](O)C2(F)F)c(=O)n1 [GEM, Gemcitabine, reference compound]
Tumor growth inhibition ratio ([3]; 60 mg/kg i.v. once in three days): 22.2% and 22.2 ± 26.7%
Tumor growth inhibition ratio ([3]; 120 mg/kg i.v. once in three days): 80.2% and 80.2 ± 20.1%
dead cases ([4]; 240 mg/kg i.v. once in three days, n=5): 3/5 dead cases
MTD at 14 days ([4]; female, Balb/c nude, mouse, in vivo, iv, i.v. once in three days, BxPC-3 bearing mice, read-out: MTD (maximum tolerated dose)): 120 mg/kg

Cc1cccc(NC(=O)N[C@@H]2N=C(c3ccccc3)c3ccccc3N(C)C2=O)c1 [L-365260]
inhibition of cancer cell proliferation [5]: not found

CNc1cccc(NC(=O)N[C@@H]2N=C(c3ccccn3)c3ccccc3N(CC(=O)C(C)(C)C)C2=O)c1 [compound A, (3R)-N-(1-(1-tert-butylcarbonylmethyl)-2,3-dihydro-2-oxo-5-(2-pyridyl)-1H-1,4-benzodiazepin-3-yl)-N′-(3-(methylamino)phenyl)urea]
Tumor growth inhibition ratio [6]: 31%
Tumor growth inhibition ratio ([7]; 200 mg/kg per day): 48%
Tumor growth inhibition ratio ([7]; 600 mg/kg per day): 79%
Tumor growth inhibition ratio [8]: 52%
Tumor growth inhibition ratio ([1]; 60 mg/kg per day): 20%
Tumor growth inhibition ratio ([1]; 200 mg/kg per day): 27%
Body weight ([9]; 200 mg/kg dose group, on the 21st day): 23.8 ± 0.5 g
Body weight ([9]; 200 mg/kg dose group, the day before commencement of administration): 22.1 ± 0.5 g
Body weight ([9]; 600 mg/kg dose group, on the 21st day): 23.3 ± 0.7 g
Body weight ([9]; 600 mg/kg dose group, the day before commencement of administration): 21.4 ± 0.6 g
influence on the mouse body weight [9, 15]: did not exert influence
side effects [9, 15]: not observed
Tumor growth inhibition ratio [10]: 47%
inhibition of gastrin-stimulated gastric acid secretion [11]: 50%
Tumor growth inhibition ratio [12]: 36%
Tumor growth inhibition ratio [13]: 65%
Tumor growth inhibition ratio ([3]; 60 mg/kg p.o. per day, 14 days): 19.3 ± 23.6%
Tumor growth inhibition ratio ([3]; 200 mg/kg p.o. per day, 14 days): 25.1%
Tumor growth inhibition ratio ([3]; 200 mg/kg p.o. per day, 14 days, listed as Compound A): 25.1 ± 21.1%
Tumor growth inhibition ratio ([3]; 600 mg/kg p.o. per day, 14 days): 78.2 ± 28.3%

CCCN(CCC)C(=O)C(CCC(=O)O)NC(=O)c1ccccc1 (stereo not drawn) [proglumide]
antitumor effect [14]: appropriate antitumor effect
mortality rate of mice [14]: reduced

— US20040138207A1, “Antitumor agents” (priority 2001, published 2004)
